Series [1] deals with T1, Bile salt export pump (Homo sapiens, UniProt O95342). Type of series: ADME.
The next series is described as follows: clinical. To be noted: human.
Another series deals with Liver. Type of series: ADME, mitochondria, Rattus norvegicus, Sprague-Dawley.
Series [2] has as its target T1, Bile salt export pump. Briefly: Inhibition of recombinant human BSEP expressed in baculovirus infected sf21 cell plasma membrane vesicles assessed as reduction in ATP-dependent [3H]-taurocholate uptake in to vesicles after 5 mins by microbeta filtration method. In kind it is ADME.
Series [3] in a line: Induction of mitochondrial dysfunction in liver mitochondria (unknown origin) assessed as inhibition of mitochondrial respiration.
Series [4] has as its target T1, Bile salt export pump. Briefly: Inhibition of BSEP (unknown origin). Type of series: ADME.
Series [5] concerns the target T1, Bile salt export pump. The series is described as follows: Inhibition of recombinant human BSEP expressed in baculovirus infected sf9 cell plasma membrane vesicles assessed as reduction in ATP-dependent [3H]-taurocholate uptake in to vesicles preincubated for 10 mins followed by ATP addition measured after 10 to 15 mins by TopCount method. Type of series: ADME.

Bounds are passed on as bounds.

T1 sequence (O95342 whole entry): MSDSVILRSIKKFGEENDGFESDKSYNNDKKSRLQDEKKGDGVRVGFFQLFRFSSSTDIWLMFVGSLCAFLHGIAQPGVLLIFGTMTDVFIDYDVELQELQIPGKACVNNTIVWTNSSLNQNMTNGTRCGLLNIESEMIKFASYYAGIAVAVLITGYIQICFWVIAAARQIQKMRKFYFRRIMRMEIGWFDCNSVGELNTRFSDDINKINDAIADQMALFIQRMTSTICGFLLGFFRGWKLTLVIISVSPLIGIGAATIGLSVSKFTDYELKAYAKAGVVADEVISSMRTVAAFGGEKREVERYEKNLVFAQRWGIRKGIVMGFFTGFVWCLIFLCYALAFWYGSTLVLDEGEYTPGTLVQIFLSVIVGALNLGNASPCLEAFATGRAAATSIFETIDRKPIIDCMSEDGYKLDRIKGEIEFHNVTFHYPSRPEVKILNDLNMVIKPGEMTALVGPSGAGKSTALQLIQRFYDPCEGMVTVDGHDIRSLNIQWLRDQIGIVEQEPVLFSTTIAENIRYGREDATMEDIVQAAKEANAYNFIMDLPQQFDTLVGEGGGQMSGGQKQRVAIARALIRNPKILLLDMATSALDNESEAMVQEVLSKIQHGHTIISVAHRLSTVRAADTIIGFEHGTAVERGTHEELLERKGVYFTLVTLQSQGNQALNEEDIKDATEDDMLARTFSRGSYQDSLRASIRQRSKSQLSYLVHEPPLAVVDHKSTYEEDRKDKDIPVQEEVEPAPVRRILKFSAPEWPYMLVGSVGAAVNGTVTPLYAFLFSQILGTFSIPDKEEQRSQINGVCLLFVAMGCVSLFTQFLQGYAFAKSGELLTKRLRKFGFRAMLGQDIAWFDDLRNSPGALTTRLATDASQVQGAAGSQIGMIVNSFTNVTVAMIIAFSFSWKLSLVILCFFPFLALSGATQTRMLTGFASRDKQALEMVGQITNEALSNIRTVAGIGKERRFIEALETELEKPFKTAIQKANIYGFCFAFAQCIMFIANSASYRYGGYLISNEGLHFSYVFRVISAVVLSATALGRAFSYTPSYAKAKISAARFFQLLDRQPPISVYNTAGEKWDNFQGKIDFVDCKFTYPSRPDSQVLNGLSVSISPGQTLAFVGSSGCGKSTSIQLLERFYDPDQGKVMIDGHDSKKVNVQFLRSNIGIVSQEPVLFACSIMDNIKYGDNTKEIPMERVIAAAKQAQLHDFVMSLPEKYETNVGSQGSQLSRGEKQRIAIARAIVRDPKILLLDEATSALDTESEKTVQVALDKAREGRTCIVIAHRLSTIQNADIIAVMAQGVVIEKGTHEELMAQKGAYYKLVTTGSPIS

With `Oc1ncnc2[nH]ncc12` [ALLOPURINOL], the IC50 at Bile salt export pump [1] (read-out: IC50) is greater than 100 µM.

On to `C[C@H]1C[C@H]2[C@@H]3CCC4=CC(=O)C=C[C@]4(C)[C@@]3(Cl)[C@@H](O)C[C@]2(C)[C@@]1(O)C(=O)CO` [BECLOMETHASONE], for which, in “clinical”, the Cmax came to 0.2 nM. For the same compound, the IC50 result was “Non-Toxic” with Liver and 10.3 µM at Bile salt export pump [1] (read-out: IC50).

Regarding `CCc1oc2ccccc2c1C(=O)c1cc(Br)c(O)c(Br)c1` [BENZBROMARONE], the highest level in “clinical” (Cmax) was 4340 nM. Besides, the IC50 at Bile salt export pump [1] (read-out: IC50) is 15.9 µM.

In turn, `C[N+](C)(C)CC(=O)O` [BETAINE] gave a Cmax in “clinical” of 599000 nM. Also, the IC50 on Bile salt export pump [2] was greater than 1000 µM; in the series on Liver, “Non-Toxic”.

As for `CC(O)(CS(=O)(=O)c1ccc(F)cc1)C(=O)Nc1ccc(C#N)c(C(F)(F)F)c1` (configuration not stated) [BICALUTAMIDE], in the series “clinical”, the Cmax worked out at 1970 nM. Besides, on Bile salt export pump [1] (read-out: IC50), the IC50 was 29.3 µM.

Take `COc1ccccc1Oc1c(NS(=O)(=O)c2ccc(C(C)(C)C)cc2)nc(-c2ncccn2)nc1OCCO` [BOSENTAN]: the Cmax in the series “clinical” came to 7430 nM. Further, the IC50 on Bile salt export pump [1] (read-out: IC50) was determined as 29 µM.

In turn, `O=C1CC2(CCCC2)CC(=O)N1CCCCN1CCN(c2ncccn2)CC1` [BUSPIRONE] came in with a Cmax in the series “clinical” of 5 nM. Besides, the IC50 result was “Non-Toxic” with Liver and greater than 100 µM on Bile salt export pump [1] (read-out: IC50).

`C[C@H](CCC(=O)O)[C@H]1CC[C@H]2[C@@H]3[C@H](O)C[C@@H]4C[C@H](O)CC[C@]4(C)[C@H]3CC[C@]12C` [CHENODIOL] returned a Cmax in the series “clinical” of 8000 nM. The IC50 entry in the series with Liver was “Non-Toxic”; on Bile salt export pump [1] (read-out: IC50) it was 10.6 µM.

On to `COCC(=O)NC/C=C/c1ccc2ncnc(Nc3ccc(Oc4ccc(C)nc4)c(C)c3)c2c1` [CP-724714], for which the IC50 in series [3] is on record as 45 nmol/mg.

For `O=C(O)Cc1ccccc1Nc1c(Cl)cccc1Cl` [DICLOFENAC], the IC50 at Bile salt export pump [1] (read-out: IC50) stood at 44 µM.

Take `CC(CCc1ccc(O)cc1)NCCc1ccc(O)c(O)c1` (configuration not stated) [DOBUTAMINE]: the Cmax in “clinical” stood at 1340 nM. Besides, the IC50 result is “Non-Toxic” with Liver and greater than 100 µM at Bile salt export pump [1] (read-out: IC50).

`Clc1ccc(COC(Cn2ccnc2)c2ccc(Cl)cc2Cl)cc1` (configuration not stated) [ECONAZOLE] gave a Cmax in “clinical” of 1 nM. Also, on Bile salt export pump [1], the IC50 worked out at 13.4 µM.

In turn, `C#C[C@]1(OC(C)=O)CC[C@H]2[C@@H]3CCC4=C[C@@H](OC(C)=O)CC[C@@H]4[C@H]3CC[C@@]21C` [ETHYNODIOL DIACETATE] returned a Cmax in the series “clinical” of 29 nM. Further, the IC50 on Bile salt export pump [1] (read-out: IC50) was determined as 62 µM.

Turning to `CCOC(=O)[C@@]1(CCCCCCOc2ccc(Cl)cc2)CO1` [ETOMOXIR], at Bile salt export pump [4], the IC50 is 11.8 µM.

`CC(C)OC(=O)C(C)(C)Oc1ccc(C(=O)c2ccc(Cl)cc2)cc1` [FENOFIBRATE]: the Cmax in “clinical” was 12100 nM. The IC50 on Bile salt export pump [1] (read-out: IC50) came out at 41 µM.

In the series “clinical”, `CCOC(=O)c1ncn2c1CN(C)C(=O)c1cc(F)ccc1-2` [FLUMAZENIL] had a Cmax of 1120 nM. The IC50 entry was “Non-Toxic” in the series on Liver and greater than 100 µM at Bile salt export pump [1] (read-out: IC50).

As to `CC(C)C(=O)Nc1ccc([N+](=O)[O-])c(C(F)(F)F)c1` [FLUTAMIDE], in “clinical”, the Cmax was 362 nM. Besides, the IC50 at Bile salt export pump [1] (read-out: IC50) turned out to be 68 µM.

`CCC1=C(C)CN(C(=O)NCCc2ccc(S(=O)(=O)NC(=O)N[C@H]3CC[C@H](C)CC3)cc2)C1=O` [GLIMEPIRIDE]: in the series “clinical”, the highest level (Cmax) was 1120 nM. Also, the IC50 result in the series on Liver is “Non-Toxic”; on Bile salt export pump [1] (read-out: IC50), 34 µM.

In the series “clinical”, `CN(C)C(=O)C(CCN1CCC(O)(c2ccc(Cl)cc2)CC1)(c1ccccc1)c1ccccc1` [LOPERAMIDE] returned a Cmax of 8 nM. The IC50 result in the series on Liver was “Non-Toxic”; on Bile salt export pump [1] (read-out: IC50), 67 µM.

In the case of `Cc1cccc(Nc2ccccc2C(=O)O)c1C` [MEFENAMIC ACID], the Cmax in the series “clinical” worked out at 26900 nM. The IC50 at Bile salt export pump [1] (read-out: IC50) was determined as 57 µM.

In “clinical”, `C[C@@H]1C[C@H]2[C@@H]3CCC4=CC(=O)C=C[C@]4(C)[C@@]3(Cl)[C@@H](O)C[C@]2(C)[C@@]1(O)C(=O)CCl` [MOMETASONE] had a Cmax of 0.3 nM. The IC50 result in the series on Liver is “Non-Toxic”; on Bile salt export pump [1] (read-out: IC50), 9.3 µM.

In the series “clinical”, `CCc1nn(CCCN2CCN(c3cccc(Cl)c3)CC2)c(=O)n1CCOc1ccccc1` [NEFAZODONE] gave a Cmax of 6800 nM. Besides, at Bile salt export pump [1] (read-out: IC50), the IC50 came to 7 µM.

As for `COC(=O)C1=C(C)NC(C)=C(C(=O)OC)C1c1ccccc1[N+](=O)[O-]` [NIFEDIPINE], the figures for the IC50 entry with Liver and on Bile salt export pump [1] (read-out: IC50) were “Non-Toxic” and 69 µM, respectively.

`CO[C@H]1/C=C/O[C@@]2(C)Oc3c(C)c(O)c4c(c3C2=O)C2=NC3(CCN(CC(C)C)CC3)NC2=C(NC(=O)/C(C)=C\C=C\[C@H](C)[C@H](O)[C@@H](C)[C@@H](O)[C@@H](C)[C@H](OC(C)=O)[C@@H]1C)C4=O` [RIFABUTIN] registered a Cmax in the series “clinical” of 685 nM. The IC50 result in the series on Liver is given as “Non-Toxic”.

Compound `CO[C@H]1/C=C/O[C@@]2(C)Oc3c(C)c(O)c4c(O)c(c(/C=N/N5CCN(C)CC5)c(O)c4c3C2=O)NC(=O)/C(C)=C\C=C\[C@H](C)[C@H](O)[C@@H](C)[C@@H](O)[C@@H](C)[C@H](OC(C)=O)[C@@H]1C` [RIFAMPIN] registered a peak concentration (Cmax) in “clinical” of 8500 nM. Also, the figures for the IC50 entry in the series on Liver and on Bile salt export pump [1] (read-out: IC50) were “Non-Toxic” and 18.7 µM, respectively.

With `CO[C@H]1/C=C/O[C@@]2(C)Oc3c(C)c(O)c4c(O)c(cc(O)c4c3C2=O)NC(=O)/C(C)=C\C=C\[C@H](C)[C@H](O)[C@@H](C)[C@@H](O)[C@@H](C)[C@H](OC(C)=O)[C@@H]1C` [RIFAMYCIN], the Cmax in the series “clinical” was determined as 2780 nM. Further, the values for the IC50 entry in the series on Liver and at Bile salt export pump [1] (read-out: IC50) were “Non-Toxic” and 9.5 µM, respectively.

As to `CC(C)c1nc(CN(C)C(=O)N[C@H](C(=O)N[C@@H](Cc2ccccc2)C[C@H](O)[C@H](Cc2ccccc2)NC(=O)OCc2cncs2)C(C)C)cs1` [RITONAVIR], in the series “clinical”, the peak level (Cmax) was 19700 nM. Besides, the IC50 entry in the series with Liver is given as “Non-Toxic”.

In the series “clinical”, `CN(CCOc1ccc(CC2SC(=O)NC2=O)cc1)c1ccccn1` (configuration not stated) [ROSIGLITAZONE] displayed a Cmax of 1040 nM. In addition, the IC50 at Bile salt export pump [5] is 3.75 µM.

For `CN[C@@H]1[C@H](O[C@H]2[C@H](O[C@H]3[C@H](O)[C@@H](O)[C@H](N=C(N)N)[C@@H](O)[C@@H]3N=C(N)N)O[C@@H](C)[C@]2(O)C=O)O[C@@H](CO)[C@H](O)[C@H]1O` [STREPTOMYCIN], the concentration in “clinical” peaked (Cmax) at 64500 nM. For the same compound, the values for the IC50 on Bile salt export pump [2] and with Liver were greater than 1000 µM and “Non-Toxic”, respectively.

Compound `O=C1C(CC[S+]([O-])c2ccccc2)C(=O)N(c2ccccc2)N1c1ccccc1` (configuration not stated) [SULFINPYRAZONE] gave a Cmax in the series “clinical” of 44200 nM. In addition, the IC50 entry is “Non-Toxic” with Liver and 11 µM on Bile salt export pump [1] (read-out: IC50).

Regarding `CC[C@H]1OC(=O)[C@H](C)C(=O)[C@H](C)[C@@H](O[C@@H]2O[C@H](C)C[C@H](N(C)C)[C@H]2O)[C@](C)(OC)C[C@@H](C)C(=O)[C@H](C)[C@H]2N(CCCCn3cnc(-c4cccnc4)c3)C(=O)O[C@]12C` [TELITHROMYCIN], the maximum concentration (Cmax) in the series “clinical” was found to be 2770 nM. In addition, the IC50 entry is “Non-Toxic” in the series with Liver and 30 µM on Bile salt export pump [1] (read-out: IC50).

In the series “clinical”, `O=c1n(CCCN2CCN(c3cccc(Cl)c3)CC2)nc2ccccn12` [TRAZODONE] had a Cmax of 5060 nM. The IC50 entry is “Non-Toxic” with Liver and 90 µM on Bile salt export pump [1] (read-out: IC50).

Regarding `CN1CCN(CCCN2c3ccccc3Sc3ccc(C(F)(F)F)cc32)CC1` [TRIFLUOPERAZINE], the concentration in “clinical” peaked (Cmax) at 5.3 nM. For the same compound, the IC50 entry with Liver is “Non-Toxic”.

For the origin of these results see ChEMBL document CHEMBL4011582, “Human drug-induced liver injury severity is highly associated with dual inhibition of liver mitochondrial function and bile salt export pump” (Hepatology, 2014).
